Where two headings read alike, the source gives them in different places.
What was measured:
[1] = mouse, in vivo
Method: (§1) Topotecan (1 mg/kg) was administered orally to wild-type and female bcrp1 KO mice. We then determined the plasma concentration of topotecan as a function of time (FIG. 9).
(§2) We then determined the plasma concentration of topotecan as a function of time.
(§3) Topotecan was also administered intravenously, for comparison. […] We then determined the plasma concentration of topotecan as a function of time.
(§4) The dose of topotecan was 1000 μg/kg of body weight.
(§5) The product of Fa and Fg is presystemic bioavailability for drugs not further metabolized in the liver. […] We determined Fa*Fg using Eh=CLTOT,BLOOD/Qh where Qh is 5.4 (L/h/kg). The fold change relative to wild type control is also presented.

[2] = mouse, in vivo; remark: listed apart in the source
Method: as §1, §2, §3, §4, §5

[3] = ratio of topotecan concentration in blood to plasma; details: mouse, blood and plasma; mice; read-out: RB, ratio of topotecan concentration in blood to plasma
ABCG2 [4] = target: T1, ABCG2 (Homo sapiens, UniProt Q9UNQ0); experiment: [3H]-estrone-3-sulfate (E1S) uptake into ABCG2-expressing membrane vesicles from HEK293 cells
T1 sequence (Q9UNQ0 1-655): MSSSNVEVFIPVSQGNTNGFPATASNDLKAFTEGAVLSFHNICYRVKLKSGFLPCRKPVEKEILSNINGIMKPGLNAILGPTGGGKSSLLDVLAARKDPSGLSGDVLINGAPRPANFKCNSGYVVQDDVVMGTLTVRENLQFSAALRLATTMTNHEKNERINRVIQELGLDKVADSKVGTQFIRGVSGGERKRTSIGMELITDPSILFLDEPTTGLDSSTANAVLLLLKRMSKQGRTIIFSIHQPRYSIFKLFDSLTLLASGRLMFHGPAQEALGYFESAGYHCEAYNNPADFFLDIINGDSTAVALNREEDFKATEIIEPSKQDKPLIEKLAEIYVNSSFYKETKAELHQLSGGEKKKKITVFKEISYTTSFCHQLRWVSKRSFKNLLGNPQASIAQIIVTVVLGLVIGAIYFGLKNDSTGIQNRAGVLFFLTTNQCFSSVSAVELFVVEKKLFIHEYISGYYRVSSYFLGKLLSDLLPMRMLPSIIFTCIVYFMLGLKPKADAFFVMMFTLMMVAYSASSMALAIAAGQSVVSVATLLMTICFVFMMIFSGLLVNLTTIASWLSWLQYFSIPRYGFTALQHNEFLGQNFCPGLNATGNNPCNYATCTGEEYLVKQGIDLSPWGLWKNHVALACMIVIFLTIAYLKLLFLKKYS
Method: (§6) Measurement of the uptake of [^3H]-estrone-3-sulfate (E1S) was carried out for 11 pharmaceutical excipients at or near their reported critical micelle concentrations using ABCG2-expressing membrane vesicles.
(§7) Eleven of the pharmaceutical excipients of Table 2 were examined for effect on ABCG2 function at their cmc. The inhibitory mechanism of ABCG2 inhibition by pharmaceutical excipients was also investigated. […] The uptake of E1S into these membrane vesicles was examined in the presence and absence of the first eleven excipients of Table 2.
(§8) The IC50 values for these excipients, and their mode of inhibitory action for the function of ABCG2 were evaluated and determined.
(§9) Km and Vmax were calculated for ABCG2 inhibition by excipients at a concentration near the IC50 values. Then, their values were compared to those obtained in the absence of excipient. […] Results are the means±SE (n=3).

ABCG2 [5] = target: T1, ABCG2; experiment: [3H]-mitoxantrone accumulation in ABCG2-transduced MDCK-II cells (BCRP MDCK-II)
Method: Methods: For constructing MDCK-II cells expressing human ABCG2 or green fluorescent protein (GFP), MDCK-II cells were infected with recombinant adenoviruses containing human ABCG2 or GFP cDNA at 48 h prior to the experiments. ABCG2 or GFP-transduced cells were preincubated in prewarmed transport buffer for 15 min. Subsequently, [^3H]-mitoxantrone (MTX) was added in transport buffer to apical compartments. Accumulation of radiolabeled substrates was allowed for 2 h at 37° C. with or without an appropriate concentration of pharmaceutical excipients, 20 μM of GF120918 or 5 μM of PSC833. The reactions were arrested by washing cells with ice-cold transport buffer. Cells were solubilized and then the lysates were transferred to a liquid scintillation counter for measurement of radioactivity.
To abolish the influence of endogenous P-gp, PSC833 (P-gp inhibitor) was added during the incubation for 2 h, except that in the samples treated with GF120918 (a shared ABCG2 and P-gp inhibitor) no PSC833 was added.
The inhibitory effect of excipients on ABCG2 was further characterized in an intracellular accumulation study. MDCK-II cells overexpressing ABCG2 (BCRP MDCK-II) and, as controls, MDCK-II cells overexpressing green fluorescence protein (GFP) (GFP MDCK-II) were prepared. Mitoxantrone was used as the substrate. Intracellular mitoxantrone accumulation in the presence or absence of excipients was determined.
To discover the excipients that can inhibit ABCG2, we performed an intracellular accumulation study using BCRP MDCK-II and GFP MDCK-II cells in the absence or presence of excipients. Mitoxantrone was used as the substrate. To abolish the effect of endogenous P-gp, this experiment was performed in the presence of PSC833. […] All of the excipients were used below their cmc, because above their cmc, excipients form micelles that can interact with the substrate, and as a consequence the effective concentration of mitoxantrone in the experimental medium can decrease.

GFP MDCK-II cells = experiment: [3H]-mitoxantrone accumulation in GFP-transduced MDCK-II control cells; assay type: cell-based
[6] = reported in literature; cited from earlier work
[7] = critical micelle concentration by surface tension in a transport buffer; assay type: physicochemical
Excerpt: The critical micelle concentration can be measured by a surface tension method,-e.g. using a Tensiometer, or other methods known in the art. Any suitable method known in the art can be used to measure the cmc. In a particular embodiment ASTM D 971 REV A is used.
Therefore, we determined the cmc of the 11 excipients used above, and others, by measuring surface tension in a transport buffer. […] The concentration beyond which there was no further change in surface tension was taken as the cmc.

ABCG2 [8] = target: T1, ABCG2
Method: as §6, §7, §8, §9

P-gp = P-gp (Homo sapiens, UniProt P08183); experiment: mitoxantrone accumulation in P-gp MDCK-II cells
Sequence of P-gp (P08183 whole entry): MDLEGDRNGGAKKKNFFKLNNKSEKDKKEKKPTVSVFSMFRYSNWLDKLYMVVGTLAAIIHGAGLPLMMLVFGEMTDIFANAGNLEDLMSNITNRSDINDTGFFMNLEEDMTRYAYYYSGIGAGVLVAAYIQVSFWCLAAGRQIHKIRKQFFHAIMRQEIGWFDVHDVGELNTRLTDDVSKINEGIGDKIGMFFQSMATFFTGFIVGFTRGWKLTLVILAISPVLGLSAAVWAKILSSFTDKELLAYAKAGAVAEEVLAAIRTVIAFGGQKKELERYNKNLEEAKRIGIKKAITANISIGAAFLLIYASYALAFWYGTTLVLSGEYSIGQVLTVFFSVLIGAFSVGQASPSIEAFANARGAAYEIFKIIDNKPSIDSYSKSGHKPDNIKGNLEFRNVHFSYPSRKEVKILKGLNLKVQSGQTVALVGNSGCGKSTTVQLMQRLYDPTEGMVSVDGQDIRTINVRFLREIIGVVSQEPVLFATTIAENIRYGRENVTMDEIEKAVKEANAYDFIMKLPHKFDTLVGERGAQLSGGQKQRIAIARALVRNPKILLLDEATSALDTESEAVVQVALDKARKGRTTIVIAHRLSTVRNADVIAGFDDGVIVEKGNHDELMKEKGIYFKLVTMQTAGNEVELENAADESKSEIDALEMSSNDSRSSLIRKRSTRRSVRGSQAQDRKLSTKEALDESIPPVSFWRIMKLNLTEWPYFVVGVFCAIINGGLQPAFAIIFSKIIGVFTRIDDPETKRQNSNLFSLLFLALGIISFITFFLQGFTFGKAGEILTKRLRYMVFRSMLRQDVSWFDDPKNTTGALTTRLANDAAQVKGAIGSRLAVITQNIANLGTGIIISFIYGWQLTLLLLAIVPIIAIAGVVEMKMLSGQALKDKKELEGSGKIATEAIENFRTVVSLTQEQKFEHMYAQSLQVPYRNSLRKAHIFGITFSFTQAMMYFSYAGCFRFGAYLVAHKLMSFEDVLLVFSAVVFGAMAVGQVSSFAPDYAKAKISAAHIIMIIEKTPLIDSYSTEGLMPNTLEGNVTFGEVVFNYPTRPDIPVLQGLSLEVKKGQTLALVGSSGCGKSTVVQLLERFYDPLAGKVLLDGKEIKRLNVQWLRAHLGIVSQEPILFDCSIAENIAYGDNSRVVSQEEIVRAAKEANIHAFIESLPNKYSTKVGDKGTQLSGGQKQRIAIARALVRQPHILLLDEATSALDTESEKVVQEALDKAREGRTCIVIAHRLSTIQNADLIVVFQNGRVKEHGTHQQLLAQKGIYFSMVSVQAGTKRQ
Excerpt: Moreover, to investigate the inhibitory effect of excipients on P-gp, we also performed an intracellular accumulation study for 15 excipients using P-gp MDCK-II cells. Mitoxantrone was again used as the substrate.

GFP/MDCK II cells = experiment: intracellular ATP level, luciferin/luciferase assay, GFP/MDCK II cells; assay type: cell-based; details: sodium azide 100 mM; P85 copolymer 20 μM; polysorbate 20 250 μM; polyoxyl 35 castor oil 50 μM; sorbitan monolaurate 100 μM; lauryl PEG ether 100 μM; n=3

CC[C@@]1(O)C(=O)OCc2c1cc1n(c2=O)Cc2cc3c(CN(C)C)c(O)ccc3nc2-1 [topotecan]
Eh of topotecan [1]: 0.37 | F of topotecan [1]: 0.12 | Fa × Fg of topotecan [1]: 0.19 | Fh of topotecan [1]: 0.63 | CLtot,plasma of topotecan ([1]; po, 1000 ug/kg): 333 mL/min/kg | Eh of topotecan [2]: 0.22 | F of topotecan [2]: 0.27 | Fa × Fg of topotecan [2]: 0.35 | Fh of topotecan [2]: 0.78 | Fold Change of Fa × Fg relative to wild type control [2]: 1.8 | CLtot,plasma of topotecan ([2]; po, 1000 ug/kg): 86.7 mL/min/kg | blood plasma ratio [3]: 1.2

CCCCCCCCCCCCOCCOCCOCCOCCO [Polyoxyl 4 lauryl ether, Lauryl polyethylene glycol ether]
IC50 (ABCG2 [4]): 77.5 ± 4.1 µM

COc1cc2c(cc1OC)CN(CCc1ccc(NC(=O)c3cccc4c(=O)c5cccc(OC)c5[nH]c34)cc1)CC2 [GF120918]
initial accumulation of mitoxantrone, BCRP versus GFP MDCK-II cells (ABCG2 [5]): no significant difference | accumulation of MTX in ABCG2-transduced cells compared to control (ABCG2 [5]; human, 2 h, 20 μM): 1.4 times | accumulation of MTX in GFP-transduced cells (in words) (GFP MDCK-II cells; Example 1, 20 μM GF120918, 2 h): no consistent effect

Sorbitan monopalmitate
Reference cmc [6]: 200 µM

CCCCCCCCCCCCO[C@@H]1O[C@H](CO)[C@@H](O[C@H]2O[C@H](CO)[C@@H](O)[C@H](O)[C@H]2O)[C@H](O)[C@H]1O [LM, n-dodecyl-β-D-maltopyranoside]
Reference cmc [6]: 170 µM | Measured cmc [7]: 688 µM | effect on ABCG2-mediated E1S uptake into vesicles (in words) (ABCG2 [8]): less or no effect

Polyoxyethyleneglyceroltriricinoleate 35 [Polyoxyl 35 castor oil]
mitoxantrone accumulation in P-gp MDCK-II cells (in words) (P-gp): increased

Polyoxyethyleneglyceroltrihydroxystearate [Polyoxyl 40 hydrogenated castor oil]
mitoxantrone accumulation in P-gp MDCK-II cells (in words) (P-gp): increased

C/C=C/C[C@@H](C)C(=O)[C@H]1C(=O)N[C@@H](C(C)C)C(=O)N(C)CC(=O)N(C)[C@@H](CC(C)C)C(=O)N[C@@H](C(C)C)C(=O)N(C)[C@@H](CC(C)C)C(=O)N[C@@H](C)C(=O)N[C@H](C)C(=O)N(C)[C@@H](CC(C)C)C(=O)N(C)[C@@H](CC(C)C)C(=O)N(C)[C@@H](C(C)C)C(=O)N1C [PSC833]
mitoxantrone accumulation in P-gp MDCK-II (P-gp; 1 hr (printed 'I hr')): markedly increased | mitoxantrone accumulation in P-gp MDCK-II cells (in words) (P-gp; Example 7): markedly reversed | initial accumulation of mitoxantrone in P-gp MDCK-II cells (P-gp; initial 5 min): significantly increased | mitoxantrone accumulation in GFP MDCK-II cells (in words) (GFP MDCK-II cells; Example 7, P-gp study, endogenous P-gp): reversed | initial accumulation of mitoxantrone in GFP MDCK-II cells (GFP MDCK-II cells; initial time course): slightly increased

Sorbitan monooleate
Reference cmc [6]: 100 µM

Polyoxyethylenesorbitan monolaurate
mitoxantrone accumulation in P-gp MDCK-II cells (in words) (P-gp): increased

Sorbitan monolaurate
Reference cmc [6]: 100 µM | mitoxantrone accumulation in P-gp MDCK-II cells (in words) (P-gp; Example 7): increased | intracellular ATP, GFP/MDCK II (GFP/MDCK II cells): 132.8 ± 3.6 nmol/mg protein | mitoxantrone accumulation in BCRP MDCK-II cells (in words) (ABCG2 [5]; Example 7, excipients below their cmc, in the presence of PSC833): significantly increased

Polyoxyethylenesorbitan monooleate
mitoxantrone accumulation in P-gp MDCK-II cells (in words) (P-gp): increased | inhibition of ABCG2 in the intact cell assay (ABCG2 [5]): did not inhibit ABCG2
